Laboratory results published in patent US20260317367A1, “SALTS INCLUDING CRYSTALLINE SALTS OF 25-HYDROXY-CHOLEST-5-EN-3-SULFATE AND METHODS FOR PREPARING SAME” (Durect Corporation, priority 2022, published 2026).
Where a name gives a salt, the structure may show the parent alone.

Assays:
Type in all cases: physicochemical
[1] = Angle of repose of 25HC3S salts; conditions: listed as 25HC3S choline
Protocol: Angle of repose is measured as follows. Powder is poured from a funnel onto a flat surface until a cone of powder is created. The angle of repose is calculated according to the following equation: […]
Table C1, from USP<1174> Powder Flow, describes the powder flow properties correlating to the angles of repose.
The lower the angle of repose, the more flowable is a material. Powder with an angle of repose between 25° to 30° will show excellent flow through a hopper, feed frame, die table and die bore smoothly. From 41° to greater than 66°, you may experience powder flow difficulties like rat-holing or bridging within the hopper.
The angle of repose was determined by pouring approximately 2 grams of a 25HC3S salt through a 7 mm inner diameter plastic tube into the center of a 21.14 mm diameter rubber O-ring, resulting in the formation of a powder cone of fixed diameter. The height of the cone was estimated with calipers.

[2] = Hausner ratio and compressibility index of 25HC3S salts; conditions: listed as 25HC3S choline
Protocol: Although there are some variations in the method of determining the compressibility index and Hausner ratio, the basic procedure is to measure the unsettled apparent volume, VO, and the final tapped volume, Vf, of the powder after tapping the material until no further volume changes occur. The compressibility index and the Hausner ratio are calculated as follows: […]
Both the Hausner ratio and the compressibility index are empirically established. The Hausner ratio and compressibility index are not absolute properties of a material; its value can vary depending on the methodology used to determine them. In this case, since the 14 salts of 25HC3S were measured the same way, the relative values should be accurate.
Table C3, from USP <1174> Powder Flow, describes the flow character of the powder based on the compressibility index and Hausner ratio values.
Powder was carefully poured into a 5 mL glass graduated cylinder (to contain) until it was close to or at 5.0 mL. This initial volume was recorded as Vo. The graduated cylinder was tapped on a hard surface for 200 times and the volume was recorded. The cylinder was tapped 100 times more, and the final volume Vf was recorded. Typically, the volume after 200 taps was identical to after 300 taps, or within 0.1 mL.

[3] = Solid-state chemical stability of 25HC3S salts at 2-8° C., 60° C. and 80° C. (HPLC assay and degradation products); conditions: for % Impurities, Total / % Impurities, 25-HC: ND = Not Detected; for Overall physical and chemical stability (in words): 60° C.; for % Impurities, 25-HC: 25-Hydroxy-Cholesterol
Protocol: (§1) Approximately 25 mg of each crystalline 25HC3S salt was added to 20 mL glass vials and each powder weight was recorded. Four vials were prepared for each salt and stored at 2-8° C. or 80° C. according to Table B2. The samples were scheduled initially to pull for testing at 3 weeks and 6 weeks' time points.
(§2) For those […] salts, the remaining vials stored at 2-8° C. for 3 weeks were allocated for storage at 60° C. for 1 week. Additional stability data was generated according to Table B3.
Based on the molecular weights, and expected UV response factors of each salt used in this study, the expected analytical sample concentrations were within the range of the 25HC3S sodium reference standards (0.75 mg/mL to 1.25 mg/mL as 25HC3S sodium salt). However, due to the lower-than-expected purity of the 25HC3S benzathine salt, an additional standard was prepared at 0.125 mg/mL as 25HC3S sodium salt.
Samples were prepared by pipetting 20 mL of 100% methanol into each vial and mixing well, with sonication and vortexing to fully dissolve the samples for HPLC analysis.
Samples were prepared by pipetting 20 mL of 100% methanol into each vial followed by two rounds of sonication for 30 minutes, with 30 seconds of vortexing before and after each round. Sample aliquots were then centrifuged at 10,000 RPM for 10 minutes and the supernatant collected for HPLC analysis.
Samples were prepared by pipetting 20 mL of 100% methanol into each vial, followed by 5 seconds of vortexing. The undissolved powder in methanol was quantitatively transferred into 200 mL volumetric flasks. The sample vials were rinsed 3 times with methanol, with each rinsate transferred to the 200 mL volumetric flasks. The volumetric flasks were filled to about 90% volume and sonicated for 10 minutes to fully dissolve the powder. The flasks were filled to volume with methanol, mixed well and aliquots collected for HPLC analysis.
HPLC analysis was performed.

[4] = Solubility of 25HC3S salts after one day at room temperature (HPLC, as free acid); conditions: room temperature, one day
Protocol: These fluids were prepared per the instruction listed by Biorelevant (Biorelevant.com). Each buffer concentrate was diluted with water and mixed well. FaSSIF, FeSSIF, FaSSGF powder was added to each buffer and mixed to completely dissolve the powder. Buffers were stored at room temperature and used within 48 hours of preparation.
25HC3S salts were weighed in 8 mL or 4 mL glass vials with Teflon coated screw caps. Aliquots of each solvent were added to each sample and vortexed for about one minute until excess solid remained. Samples were placed on shaker at room temperature with 210 motion per minute shaking.
After one day, samples were pulled and checked if excess solid was present. About 1.5 mL aliquot of each sample was centrifuged at 12000 rpm for 12 to 15 minutes. […] Aliquots of the top clear solution of each centrifuged sample in MeOH, EtOH, IPA and ACN were diluted with diluent (water:MeOH 95:5) and assayed by HPLC. Samples of the salts in aqueous media were assayed by HPLC without dilution.
All solubility sample solutions of 25HC3S salts were determined using HPLC. A linear standard curve was constructed using standards with concentration between 11 μg/mL to 1.5 mg/mL as free acid forcing the curve to origin. Solubilities are reported as mg/mL free acid 25HC3S. Detection limit (LOD) of the HPLC method was calculated as 0.0007 mg/mL.

[5] = Appearance (color, clumping, flowability) of stored 25HC3S salts
Protocol: as §1, §2
For appearance, each unopened vial was visually examined for color, clumping, and flowability.

[6] = 2-8° C., 3 wk, listed as 25HC3S choline
[7] = 2-8° C., 5 wk, listed as 25HC3S choline
[8] = 80° C., 3 wk, listed as 25HC3S choline
[9] = 80° C., 5 wk, listed as 25HC3S choline

CC(CCCC(C)(C)O)C1CCC2C3CC=C4CC(OS(=O)(=O)O)CCC4(C)C3CCC12C (stereo not shown) [Salt #4]
Angle of Repose [1]: 34.9 degrees
Angle of Repose, Rounded Whole Number ([1]; rounded whole number): 35 degrees
Compressibility Index ([2]; Table C3 heads this index in %): 42
Hausner Ratio [2]: 1.72
Assay ([3]; 2-8° C., 3 wk, 30240 min, listed as 25HC3S choline): 101.6 % w/w
% Impurities, Total [3, 6]: 1.0%
Assay ([3]; 2-8° C., 5 wk, 50400 min, listed as 25HC3S choline): 108.1 % w/w
% Impurities, Total [3, 7]: 0.9%
Overall physical and chemical stability (in words) ([3]; 2-8° C., 80° C.): physically and chemically stable
Overall physical and chemical stability (in words) ([3]; 2-8° C., 80° C., listed as 25HC3S choline): relatively stable
% Impurities, 25-HC [3, 6]: 0.2%
% Impurities, 25-HC [3, 7]: 0.2%
% Impurities, 25-HC [3, 8]: 0.4%
% Impurities, 25-HC [3, 9]: 0.2%
Stressed stability at 80° C. (in words) ([3]; 80° C.): good, stressed stability
% Recovery ([3]; 80° C., 3 wk, vs 2-8° C., 30240 min, listed as 25HC3S choline, 30240 min): 100.8%
Assay ([3]; 80° C., 3 wk, 30240 min, listed as 25HC3S choline): 102.4 % w/w
% Impurities, Total [3, 8]: 1.2%
Physical and chemical solid-state stability (comments) ([3]; 80° C., 5 weeks): Stable after 5 weeks at 80 °C physically and chemically.
Assay ([3]; 80° C., 5 wk, 50400 min, listed as 25HC3S choline): 105.2 % w/w
% Impurities, Total [3, 9]: 2.2%
Stability after 5 weeks at 80° C. (in words) ([3]; solid state, 80° C., 5 weeks): stable
remaining at 840 h ([3]; solid state, 80° C., 5 wk, read-out: % Recovery, 2-8° C./5 wk vs 80° C./5 wk): 97.3%
Solubility in 5% Dextrose ([4]; 5% dextrose, as free acid, ND = not detected, detection limit 0.7 μg/mL, 1440 min, listed as 25HC3S choline): 93 µg/mL
Solubility in FaSSGF ([4]; FaSSGF, as free acid, ND = not detected, detection limit 0.7 μg/mL, 1440 min, listed as 25HC3S choline): 8 µg/mL
Solubility in FaSSGF (in words) ([4]; FaSSGF, listed as crystalline 25HC3S choline): low solubility
Solubility in FaSSIF ([4]; FaSSIF, as free acid, 1440 min, listed as 25HC3S choline): 152 µg/mL
Solubility in FaSSIF (in words) ([4]; FaSSIF, listed as crystalline 25HC3S choline): relatively high solubility
Solubility in FeSSIF ([4]; FeSSIF, as free acid, 1440 min, listed as 25HC3S choline): 827 µg/mL
Solubility in FeSSIF (in words) ([4]; FeSSIF, listed as crystalline 25HC3S choline): relatively high solubility
Solubility in ACN ([4]; acetonitrile, as free acid, 1440 min, listed as 25HC3S choline): 500 µg/mL
Solubility in EtOH ([4]; ethanol, as free acid, ≥ = did not reach saturation, 1440 min, listed as 25HC3S choline): 3400 µg/mL
Solubility in IPA ([4]; isopropyl alcohol, as free acid, 1440 min, listed as 25HC3S choline): 600 µg/mL
Solubility in MeOH ([4]; methanol, as free acid, ≥ = did not reach saturation, 1440 min, listed as 25HC3S choline): 17500 µg/mL
Solubility in saline / 0.9% sodium chloride (in words) ([4]; saline, listed as crystalline 25HC3S choline): low solubility
Solubility in H2O ([4]; water, as free acid, ND = not detected, detection limit 0.7 μg/mL, 1440 min, listed as 25HC3S choline): 107 µg/mL
Appearance [5, 6]: White, free flowing powder with clumping
Appearance ([5]; 2-8° C., 5 wk): White, free flowing powder with clumping
Appearance [5, 8]: White, free flowing powder with clumping
Appearance ([5]; 80° C., 5 wk): White, free flowing powder with clumping
